Type in all cases: cell-based
Experiment [1] has as its system human mast cell line LAD2 cells. Put plainly: Leukotriene production of human mast cell line LAD2 cells (Leukotriene EIA). How it is done:
The human mast cell line LAD2 cells obtained from National Institute of Health in US were subjected to passive sensitization overnight using DNP IgE (Yamasa, 1 μg/ml), washed and plated on a 96-well plate in a final cell concentration of 100,000 cells/well in the reaction solution. LAD2 cells were stimulated by lysoPS and DNP-BSA and the plate was centrifuged 20 minutes after. The leukotriene in the supernatant of the reaction solution was assayed using Leukotriene EIA Kit (Amersham).

The subject of experiment [2] is rat primary culture microglial cells (PMGC). Briefly: Expression of cytokine genes in activated PMGC (TaqMan PCR). The conditions noted are these: lysoPS 5 μM, LPS 1 μg/ml, IFN-α 1 ng/ml. How it is done:
In order to examine the action of lysoPS on the activation of microglia, actions induced by the addition of lysoPS in PMGC activated by LPS stimulation was examined in the presence of IFN-α. PMGC, which was prepared from the brain of rat of one day old on the preceding day, was plated on a 24-well plate (Falcon 353047) at 50000 cells/well, and IFN-α (1 ng/ml, Biovision) was added 6 hours after. On the following day, lysoPS (5 μM) was added upon stimulation by LPS (1 μg/ml), and comparison was made between the presence and absence of lysoPS if cytokine production was affected. RNA was prepared as in the procedure described in EXAMPLE 4 for 2 and 8 hours after addition or without addition of LPS and lysoPS (5 μM). The sequencing information of the primers, probe and standard used for TaqMan are as described above. The cytokine production was compared by TaqMan PCR in terms of changes in expression levels of cytokine genes.

The test system is the same in experiment [3]. Put plainly: Phosphorylation of ERK1/2 in PMGC. The conditions noted are these: lysoPS.
In the next experiment the target is T1, GPR34 (Homo sapiens, UniProt Q9UPC5).
T1 construct: expressed in transfected cells
Put plainly: Intracellular cAMP production inhibitory activity on GPR34-expressed CHO cells (forskolin stimulated). To be noted: phosphatidylserine in a higher concentration. The method, then: The GPR34-expressed CHO cells prepared in (1-2) described above and selected in (1-3) described above were plated on a 24-well plate in 6×10^4 cells/well followed by incubation for 48 hours. The cells were washed with αMEM medium (pH 7.5) containing 0.2 mM 3-isobutylmethylxanthine, 0.05% BSA and 20 mM HEPES (hereinafter αMEM medium (pH 7.5) containing 0.2 mM 3-isobutylmethylxanthine, 0.05% BSA and 20 mM HEPES is referred to as the reaction buffer). Thereafter, 0.5 mL of the reaction buffer was added and the mixture was kept warm for 30 minutes in an incubator. The reaction buffer was removed and 0.25 mL of fresh reaction buffer was replenished to the cells. Then, 0.25 mL of the reaction buffer containing a sample and 2 μM forskolin was added to the cells, followed by reacting at 37° C. for 30 minutes. The reaction solution was removed and 0.5 mL of the cell lysis solution attached to cAMP EIA kit (Applied Biosystems) to extract cAMP in the cells. The cAMP level in the extract was quantified using the same kit. Based on this measurement data, the cAMP production inhibitory activity was calculated based on the equation shown below and expressed in terms of percentage to the control group. […]

Experiment [4] has as its system other receptor expression cells. Put plainly: cAMP production inhibitory activity on other receptor expression cells.
Experiment [5] deals with mouse bone marrow-derived mast cells. Put plainly: MAPK activation: phosphorylation of ERK1/2 in mouse bone marrow-derived mast cells (BMMC). To be noted: BMMC. How it is done:
BMMC was established by collecting bone marrow fluid from the femur of male BALB/c mouse (Japan SLC), rinsing in RPMI1640 (Nikken Bio Medical Laboratory) and then incubating in a medium (RPMI1640, 50% WEHI-3 culture supernatant, 10% FBS (GIBCO), penicillin/streptomycin (BIOWHITTAKER), Non-Essential amino acids (GIBCO)) for 4 weeks. The cells were incubated in a CO2 incubator immediately before assay. Pertussis toxin (hereinafter PTX) was added to the cells in a final concentration of 0.1 μg/mL 4 hours before assay. BMMC was washed in ice-chilled assay buffer (Tyrode Buffer, 0.01% fatty acid free-BSA (SIGMA), 1 mM CaCl2, 1 mM MgCl2), and suspended in 2×10^6 cells/ml. The suspension was dispensed in a 1.5 mL tube followed by preincubation for 15 minutes at 37° C. The lysoPS solution and A23187 solution (Wako Pure Chemicals) as a positive control were added in equimolar amounts. After incubation at 37° C., the reaction was terminated by quenching. The cells were precipitated by centrifugation and the assay buffer was aspirated. After washing in PBS, 1×SDS sample buffer/DTT was added to the cells to lyse the cells. After ultrasonication for 15 seconds, the sample was heated at 95° C. for 5 minutes followed by quenching.
Detection by SDS-PAGE and western blotting were performed as follows. After separation using 10% Bis-Tris gel (Invitrogen), the gel was transferred to Immuno-Blot PVDF Membrane (BIO-RAD). The membrane was blocked with Block Ace (Dai-Nippon Pharmaceutical) and incubated at 4° C. overnight with a primary antibody (Phospho-p42/p44 MAP Kinase (Thr202/Thr204) Antibody (CST) or p42/p44 MAP Kinase Antibody (CST)) and further incubated at room temperature for an hour using a secondary antibody (Anti-rabbit IgG (CST)). The membrane after the antibody reaction was visualized by chemiluminescence using ECL PLUS (Amersham Biosciences). Detection and image analysis were performed using LAS1000 (FUJI FILM).

T1 sequence (Q9UPC5 whole entry): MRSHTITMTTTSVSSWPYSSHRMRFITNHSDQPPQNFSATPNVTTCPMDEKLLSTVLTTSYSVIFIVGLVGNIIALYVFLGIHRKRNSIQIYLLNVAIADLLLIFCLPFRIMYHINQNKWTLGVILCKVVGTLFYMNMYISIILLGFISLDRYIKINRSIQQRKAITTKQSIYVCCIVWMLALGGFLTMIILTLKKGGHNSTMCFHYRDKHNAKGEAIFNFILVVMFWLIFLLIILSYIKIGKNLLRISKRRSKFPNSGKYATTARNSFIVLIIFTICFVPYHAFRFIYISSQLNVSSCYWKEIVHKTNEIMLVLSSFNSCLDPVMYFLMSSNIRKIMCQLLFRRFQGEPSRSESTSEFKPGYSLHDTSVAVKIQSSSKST

For lysophosphatidylserine [lysoPS], the leukotriene production in experiment [1] (300 ng/ml DNP-BSA with 0.1 μM lysoPS added simultaneously) was found to be 382 pg/mL; in experiment [1] (300 ng/ml DNP-BSA with 0.3 μM lysoPS added simultaneously) it was 529 pg/mL; in experiment [1] (300 ng/ml DNP-BSA with 1 μM lysoPS added simultaneously), 638 pg/mL; in experiment [1] (300 ng/ml DNP-BSA with 3 μM lysoPS added simultaneously), 750 pg/mL; in experiment [1] (300 ng/ml DNP-BSA with 10 μM lysoPS added simultaneously), 792 pg/mL. For the same substance, in experiment [2] (2 hours after the addition), the “expression of inflammatory cytokine IL-6” value is “tendency to suppress the expression”. For the same substance, the “expression of inflammatory cytokine TNF-α” value in experiment [2] (2 hours after the addition) was “tendency to suppress the expression”. Moreover, in experiment [2] (8 hours after), the “expression of anti-inflammatory cytokine IL-10” value was “tendency to increase its expression”. Besides, the “phosphorylation of ERK1/2” value in experiment [3] is listed as “also noted in PMGC”. For the same substance, the “cAMP production inhibitory activity” value at GPR34 is “marked activities”. Besides, the “cAMP production inhibitory action on other receptor expression cells” value in experiment [4] is on record as “not noted”. In experiment [5], the “phosphorylation of ERK1/2 30 minutes after the stimulation” value was “the phosphorylation was observed”. In addition, the “time of maximum response of ERK1/2 phosphorylation after the stimulation” value in experiment [5] is recorded as “about 2 minutes”.

(Values after patent US7951548B2, “IL-13 production inhibitor” (Takeda Pharmaceutical Company Limited, priority 2005, dated 2011).)
